Source: patent US20120115941A1, “Compounds Affecting Glycemic Index” (SACRON INNOVATIONS PTY LIMITED, priority 2009, published 2012)
Like-named read-outs stand apart in the source and are kept apart here.

Tests used:
Type in all cases: biochemical
[1] = target: T1, porcine pancreatic α-amylase (Sus scrofa, UniProt P00690); test: Porcine α-amylase inhibition assay (EnzChek Ultra Amylase Assay kit)
T1 sequence (P00690 16-511): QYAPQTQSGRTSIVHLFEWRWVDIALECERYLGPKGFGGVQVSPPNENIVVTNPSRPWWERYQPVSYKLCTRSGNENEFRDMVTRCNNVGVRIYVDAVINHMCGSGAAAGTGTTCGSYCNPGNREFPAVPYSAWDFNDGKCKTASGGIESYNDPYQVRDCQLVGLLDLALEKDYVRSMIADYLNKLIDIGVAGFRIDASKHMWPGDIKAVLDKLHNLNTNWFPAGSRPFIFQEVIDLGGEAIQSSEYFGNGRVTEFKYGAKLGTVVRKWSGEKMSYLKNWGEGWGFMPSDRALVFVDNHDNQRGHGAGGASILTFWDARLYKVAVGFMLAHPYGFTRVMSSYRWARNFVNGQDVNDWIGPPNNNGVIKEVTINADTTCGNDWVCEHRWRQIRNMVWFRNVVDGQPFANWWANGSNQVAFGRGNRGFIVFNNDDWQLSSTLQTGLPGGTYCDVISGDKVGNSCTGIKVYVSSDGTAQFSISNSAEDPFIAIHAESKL
Protocol: (§1) Bakers yeast α-glucosidase [EC 3.2.1.20], and porcine pancreatic α-amylase [EC 3.2.1.1]were used during bioassay guided fractionation. Rat intestinal acetone powder was used as a source of mammalian α-glucosidase.
(§2) In each bioassay the hydrolysis product was measured using the Victor 2 multi-plate reader (Wallac, Turku, Finland) and all samples were tested in duplicate or triplicate. Non-enzyme controls were subtracted from the enzyme absorbance and the percentage inhibition of test samples was calculated as: […]
:wherein A and B are the absorbance of the hydrolysis product in the absence and presence of inhibitor, respectively. Percent inhibition values were expressed as mean±standard deviation.
Porcine α-Amylase Inhibition Assay
This assay was performed using the EnzChek® Ultra Amylase Assay kit. Samples were dissolved in DMSO and diluted with 100 mM of 3-morpholinopropanesulfonic acid (MOPS) buffer (pH 6.9) to give a final concentration of […], unless otherwise stated.

[2] = target: Bakers yeast α-glucosidase; test: Yeast α-glucosidase inhibition assay
Protocol: as §1, with “α-glucosidase. The EnzChek® Ultra Amylase Assay kit (E-33651) was purchased from Molecular Probes (Eugene, Oreg., USA).” for “α-glucosidase.”
as §2
(§3) :wherein A and B are the absorbance of the hydrolysis product in the absence and presence of inhibitor, respectively. Percent inhibition values were expressed as mean±standard deviation. The IC50 was the concentration required for 50% inhibition of enzyme activity under the assay conditions, and values were calculated using a four-parameter fit by Microsoft Excel Solver.
Yeast α-Glucosidase Inhibition Assay
Extracts and fractions were dissolved in DMSO at 30 mg/mL or 10 mM for pure compounds, and diluted to working concentrations in sodium acetate buffer (pH 5.5). Final sample concentrations were 50 μg/mL, unless otherwise stated. The substrate, 4-methylumbelliferyl-α-D-glucopyranoside (84 μM, 45 μL), was added to 96-well plates containing 50 μL yeast α-glucosidase (3 mU/mL) and 5 μL of sample. The plate was mixed on an orbital shaker for 30 seconds and incubated for 20 minutes at 37° C. The reaction was stopped by the addition of 100 mM sodium-glycine buffer (100 μL, pH 10.6) and the plate was shaken for a further 30 seconds and the fluorescence intensity was measured at λex 355 nm, λem 460 nm. Fucoidan (20 μg/mL) was used as a positive inhibitor control, and sodium acetate buffer as a negative control.

[3] = test system: rat intestinal α-glucosidase; test: Mammalian α-glucosidase inhibition assay (rat intestinal acetone powder, maltose substrate)
Protocol: as §1, with “α-glucosidase. The EnzChek® Ultra Amylase Assay kit (E-33651) was purchased from Molecular Probes (Eugene, Oreg., USA).” for “α-glucosidase.”
as §2, §3
Mammalian α-Glucosidase Inhibition Assay
The α-glucosidase inhibitory activity of pure compounds was measured as described previously, with some modifications. The crude enzyme solution was prepared by suspending 50 mg of rat intestinal acetone powder in 0.9% sodium chloride solution (1.5 mL). The mixture was homogenised by sonication in ice-cold water for 10 minutes and then centrifuged at 10,000 g for 30 minutes. The resulting supernatant was used in the assay.
The substrate maltose (3 mM, 20 μL) was added to 96-well plates containing the crude α-glucosidase mixture (20 μL) and sample (10 μL). The microtitre plate was mixed on an orbital shaker for 30 seconds, incubated for 30 minutes at 37° C. and the reaction was stopped by the addition of 2 M Tris buffer (75 μL ). The glucose liberated was measured by adding 30 μL of the reaction mixture to the Glucose Hexokinase assay reagent (170 μL), which was mixed and incubated for 15 minutes at room temperature. The fluorescence of the mixture was measured at λex 340 nm, λem 470 nm.

[4] = porcine α-amylase, read-out: Amylase (porcine) IC50

| Compound | IC50 ([1]; Amylase (porcine) IC50, porcine α-amylase) [µM] | IC50 [2] [µM] | Glucosidase (rat) % Inhibition at 200 μM [3] [%] | IC50 [1, 4] [µM] | Glucosidase (rat) % Inhibition at 200 μM ([3]; 200 µM) [%] | activity against porcine α-amylase, fold greater than acarbose ([1]; relative to acarbose) [fold] | Glucosidase (yeast) IC50 ([2]; unit given in the name cell for fucoidan) [µg/mL] |
| --- | --- | --- | --- | --- | --- | --- | --- |
| COc1cc(-c2cc(=O)c3c(O)cc(O)cc3o2)cc(OC)c1O [Compound 4, Tricin, reference compound] | 104 | 70.6 | 16.1 | – | – | – | – |
| COc1cc(C(OC)C(CO)Oc2c(OC)cc(-c3cc(=O)c4c(O)cc(O)cc4o3)cc2OC)ccc1O (stereo not drawn) [Compound 5, tricin-4′-O-[threo-β-guaiacyl-(7″-O-methyl)-glyceryl]ether] | – | 95.9 | 6.1 | 31.9 | – | – | – |
| COc1cc(C(OC)C(CO)Oc2c(OC)cc(-c3cc(=O)c4c(O)cc(O)cc4o3)cc2OC)ccc1O (stereo not drawn) [Compound 6, tricin-4′-O-[erythro-β-guaiacyl-(7″-O-methyl)-glyceryl]ether] | – | 72 | 6.1 | 26.5 | – | – | – |
| COc1cc(C(O)C(COC(=O)C=Cc2ccc(O)cc2)Oc2c(OC)cc(-c3cc(=O)c4c(O)cc(O)cc4o3)cc2OC)ccc1O (stereo not drawn) [Compound 7, tricin-4′-O-[erythro-β-guaiacyl-(9″-O-p-coumaroyl)-glyceryl]ether] | – | 37.5 | – | 2 | 25.7 | – | – |
| COc1cc(C(O)C(COC(=O)C=Cc2ccc(O)cc2)Oc2c(OC)cc(-c3cc(=O)c4c(O)cc(O)cc4o3)cc2OC)ccc1O (stereo not drawn) [Compound 8, tricin-4′-O-[threo-β-guaiacyl-(9″-O-p-coumaroyl)-glyceryl]ether] | – | 37.9 | – | 0.9 | 10.0 | 130 | – |
| O=c1cc(-c2ccc(O)cc2)oc2cc(O)cc(O)c12 [Compound 18, Apigenin, reference compound] | – | 108 | −12.2 | – | – | – | – |
| O=c1cc(-c2ccc(O)c(O)c2)oc2cc(O)cc(O)c12 [Compound 19, Luteolin, reference compound] | – | 92.3 | 4.8 | 99.5 | – | – | – |
| Fucoidan [reference compound] | – | – | – | – | – | – | 0.82 |
